In PMC10247784, “Physiological activation of human and mouse bitter taste receptors by bile acids” (Communications Biology, 2023):

Tested on: HEK293T-Gα16gust44 cells transfected with empty vector (mock)
Experiment: Calcium imaging assay (FLIPR), empty vector control (mock)
Format: cell-based
Method: This set of bile acids was chosen because of their commercial availability in high purities, their diversity within the class of bile acids and their previous detection and quantitation in human blood. Stock solutions were prepared in DMSO.
As basal growth medium for the HEK293T-Gα16gust44 cell line[17],[59] served Dulbecco’s modified eagle medium (DMEM) (Thermo Fisher Scientific, Darmstadt, Germany) supplemented with 10 % fetal bovine serum (Sigma-Aldrich, Steinheim, Germany), 2 mM L-glutamine (Sigma-Aldrich, Steinheim, Germany), 100 units/ml penicillin (Sigma Aldrich, Steinheim, Germany) and 100 µg/ml streptomycin (Sigma Aldrich, Steinheim, Germany). Growth conditions were 37 °C, 5 % CO2 and saturated air-humidity[60].
HEK293T-Gα16gust44 cells were seeded on poly-D-lysine (10 µg/ml) coated 96-well plates to reach a confluence of 40-60 % the next day. For transient transfection 150 ng of plasmid DNA containing the receptor of interest and 0.3 µl lipofectamine 2000 (Thermo Fisher Scientific, Darmstadt, Germany) per well were used and transfection took place according to the manual of lipofectamine 2000. […] The empty vector DNA (mock) was transfected as negative control[14],[41].
Cells were loaded using the calcium-sensitive fluorescent dye Fluo-4-AM (Abcam, Cambridge, Great Britain) in the presence of 2.5 mM probenecid (Sigma-Aldrich, Steinheim, Germany) the day after transfection[13],[41]. 1 h after loading, cells were washed with C1 buffer using a BioTek Cell Washer, incubated in the dark for half an hour and washed again. For automated agonist application and measurement of fluorescence changes, a FLIPR^TETRA device (Molecular Devices, San José, United States) was used. Viability of cells was tested by application of 100 nM Somatostatin 14 (Bachem, Bubendorf, Switzerland)[42].
Measured data were negative control corrected by subtracting the signal of the mock-transfected cells and exported to Microsoft Excel using the FLIPR software ScreenWorks 4.2. In Microsoft Excel software, standardization of maximum fluorescence intensities to the basal fluorescence and normalization to the buffer-only control was done to calculate the relative fluorescence changes (ΔF/F).
Initial screening experiments performed in duplicate wells were confirmed by at least one replication and representative traces were selected for display. All dose-response relationships were determined by three independent experiments (biological replicates) performed in duplicates (technical replicates). Threshold concentrations, defined as lowest substance concentrations leading to statistically significant elevated fluorescence changes in receptor-transfected cells compared with empty vector-transfected cells, were determined using SigmaPlot with Student’s t-test to evaluate statistical significance (p < 0.01).

[1] = Mock, sheet Tas2r105, conc. 0,01 mM
[2] = Mock, sheet Tas2r105, conc. 0,001 mM
[3] = Mock, sheet Tas2r105, conc. 0,003 mM
[4] = conc. 0,001 mM, Mock (sheet TAS2R1)
[5] = conc. 0,003 mM, Mock (sheet TAS2R1)

In the case of `C[C@H](CCC(=O)NCC(=O)O)[C@H]1CC[C@H]2[C@@H]3[C@H](O)C[C@@H]4C[C@H](O)CC[C@]4(C)[C@H]3C[C@H](O)[C@]12C` [Glycocholic Acid, glycocholic acid], the “Δ F/F” value (Conc. 0,01 mM, Mock (sheet TAS2R39)) was -0.01548, the “Δ F/F” value (Conc. 0,1 mM, Mock (sheet TAS2R39)) was -0.02609 and the “Δ F/F” value (Conc. 0,03 mM, Mock (sheet TAS2R39)) was -0.02235. The “Δ F/F” value (Conc. 0,3 mM, Mock (sheet TAS2R39)) was -0.04919, the “Δ F/F” value (Conc. 0,001 mM, Mock (sheet TAS2R39)) was -0.01811 and the “Δ F/F” value (Conc. 1 mM, Mock (sheet TAS2R39)) was -0.07251. For the same molecule, the “Δ F/F” value (Conc. 0,003 mM, Mock (sheet TAS2R39)) was -0.02014, the “Δ F/F” value (Mock (sheet Tas2r123), conc. 0,01 mM) was -0.001257 and the “Δ F/F” value (Mock (sheet Tas2r123), conc. 0,1 mM) was -0.001605. For the same molecule, the “Δ F/F” value (Mock (sheet Tas2r123), conc. 0,03 mM) was -0.001376, the “Δ F/F” value (Mock (sheet Tas2r123), conc. 0,3 mM) was 0.0005119 and the “Δ F/F” value (Mock (sheet Tas2r123), conc. 0,001 mM) was -0.001339. For the same molecule, the “Δ F/F” value (Mock (sheet Tas2r123), conc. 0,003 mM) was -0.001948, the “Δ F/F” value (Mock (sheet Tas2r126), conc. 0,01 mM) was -0.0096 and the “Δ F/F” value (Mock (sheet Tas2r126), conc. 0,1 mM) was -0.02403. The “Δ F/F” value (Mock (sheet Tas2r126), conc. 0,03 mM) was -0.01217, the “Δ F/F” value (Mock (sheet Tas2r126), conc. 0,3 mM) was -0.03338 and the “Δ F/F” value (Mock (sheet Tas2r126), conc. 0,001 mM) was -0.01229. The “Δ F/F” value (Mock (sheet Tas2r126), conc. 1 mM) was -0.06654, the “Δ F/F” value (Mock (sheet Tas2r126), conc. 0,003 mM) was -0.01228 and the “Δ F/F” value (Mock (sheet Tas2r144), conc. 0,01 mM) was 0.0008421. The “Δ F/F” value (Mock (sheet Tas2r144), conc. 0,1 mM) was 0.001148, the “Δ F/F” value (Mock (sheet Tas2r144), conc. 0,03 mM) was -3.983e-5 and the “Δ F/F” value (Mock (sheet Tas2r144), conc. 0,3 mM) was 0.0006824. The “Δ F/F” value (Mock (sheet Tas2r144), conc. 0,003 mM) was 0.002307, the “Δ F/F” value (Mock, sheet TAS2R4, conc. 0,01 mM) was -0.0004971 and the “Δ F/F” value (Mock, sheet TAS2R4, conc. 0,1 mM) was -0.0007383. The “Δ F/F” value (Mock, sheet TAS2R4, conc. 0,03 mM) was -0.0008538, the “Δ F/F” value (Mock, sheet TAS2R4, conc. 0,3 mM) was 3.213e-5 and the “Δ F/F” value (Mock, sheet TAS2R4, conc. 0,001 mM) was -0.0002133. For the same molecule, the “Δ F/F” value (Mock, sheet TAS2R4, conc. 0,003 mM) was -6.081e-5, the “Δ F/F” value (Mock, sheet TAS2R14, conc. 0,01 mM) was -0.01698 and the “Δ F/F” value (Mock, sheet TAS2R14, conc. 0,1 mM) was -0.02625. For the same molecule, the “Δ F/F” value (Mock, sheet TAS2R14, conc. 0,03 mM) was -0.01883, the “Δ F/F” value (Mock, sheet TAS2R14, conc. 0,3 mM) was -0.03707 and the “Δ F/F” value (Mock, sheet TAS2R14, conc. 0,001 mM) was -0.0212. For the same molecule, the “Δ F/F” value (Mock, sheet TAS2R14, conc. 1 mM) was -0.05126, the “Δ F/F” value (Mock, sheet TAS2R14, conc. 0,003 mM) was -0.01715 and the “Δ F/F” value (Mock, sheet TAS2R46, conc. 0,01 mM) was -0.02275. For the same molecule, the “Δ F/F” value (Mock, sheet TAS2R46, conc. 0,1 mM) was -0.03044, the “Δ F/F” value (Mock, sheet TAS2R46, conc. 0,03 mM) was -0.02768 and the “Δ F/F” value (Mock, sheet TAS2R46, conc. 0,3 mM) was -0.0463. For the same molecule, the “Δ F/F” value (Mock, sheet TAS2R46, conc. 0,001 mM) was -0.02143, the “Δ F/F” value (Mock, sheet TAS2R46, conc. 1 mM) was -0.07983 and the “Δ F/F” value (Mock, sheet TAS2R46, conc. 0,003 mM) was -0.02717. The “Δ F/F” value [1] was -0.01859, the “Δ F/F” value (Mock, sheet Tas2r105, conc. 0,1 mM) was -0.0309 and the “Δ F/F” value (Mock, sheet Tas2r105, conc. 0,03 mM) was -0.02007. The “Δ F/F” value (Mock, sheet Tas2r105, conc. 0,3 mM) was -0.05122, the “Δ F/F” value [2] was -0.01558 and the “Δ F/F” value (Mock, sheet Tas2r105, conc. 1 mM) was -0.09069. For the same molecule, the “Δ F/F” value [3] was -0.01717, the “Δ F/F” value (Mock, sheet Tas2r108, conc. 0,01 mM) was -0.01889 and the “Δ F/F” value (Mock, sheet Tas2r108, conc. 0,1 mM) was -0.02753. The “Δ F/F” value (Mock, sheet Tas2r108, conc. 0,03 mM) was -0.02185, the “Δ F/F” value (Mock, sheet Tas2r108, conc. 0,3 mM) was -0.04768 and the “Δ F/F” value (Mock, sheet Tas2r108, conc. 0,001 mM) was -0.0151. The “Δ F/F” value (Mock, sheet Tas2r108, conc. 1 mM) was -0.06489, the “Δ F/F” value (Mock, sheet Tas2r108, conc. 0,003 mM) was -0.01714 and the “Δ F/F” value (Mock, sheet Tas2r117, conc. 0,01 mM) was -0.001257. For the same molecule, the “Δ F/F” value (Mock, sheet Tas2r117, conc. 0,1 mM) was -0.001605, the “Δ F/F” value (Mock, sheet Tas2r117, conc. 0,03 mM) was -0.001376 and the “Δ F/F” value (Mock, sheet Tas2r117, conc. 0,3 mM) was 0.0005119. The “Δ F/F” value (Mock, sheet Tas2r117, conc. 0,0003 mM) was -0.001061, the “Δ F/F” value (Mock, sheet Tas2r117, conc. 0,001 mM) was -0.001339 and the “Δ F/F” value (Mock, sheet Tas2r117, conc. 0,003 mM) was -0.001948. The “Δ F/F” value (conc. 0,01 mM, Mock (sheet TAS2R1)) was -0.001476, the “Δ F/F” value (conc. 0,1 mM, Mock (sheet TAS2R1)) was -0.002206 and the “Δ F/F” value (conc. 0,03 mM, Mock (sheet TAS2R1)) was -0.001334. For the same molecule, the “Δ F/F” value (conc. 0,3 mM, Mock (sheet TAS2R1)) was 0.00174, the “Δ F/F” value [4] was -0.0005627 and the “Δ F/F” value [5] was 0.0001343.
With `C[C@H](CCC(=O)O)[C@H]1CC[C@H]2[C@@H]3CC[C@@H]4C[C@H](O)CC[C@]4(C)[C@H]3CC[C@]12C` [Lithocholic Acid, lithocholic acid] the “Δ F/F” value [1] was -0.0002988, the “Δ F/F” value (Mock, sheet Tas2r105, conc. 0,00001 mM) was -0.01431 and the “Δ F/F” value (Mock, sheet Tas2r105, conc. 0,00003 mM) was -0.01708. The “Δ F/F” value (Mock, sheet Tas2r105, conc. 0,0001 mM) was -0.01503, the “Δ F/F” value (Mock, sheet Tas2r105, conc. 0,0003 mM) was -0.01339 and the “Δ F/F” value [2] was -0.01175. For the same molecule, the “Δ F/F” value [3] was -0.00295, the “Δ F/F” value (conc. 0,00003 mM, Mock (sheet TAS2R1)) was -7.475e-5 and the “Δ F/F” value (conc. 0,0001 mM, Mock (sheet TAS2R1)) was -0.001646. For the same molecule, the “Δ F/F” value (conc. 0,0003 mM, Mock (sheet TAS2R1)) was -0.002463, the “Δ F/F” value [4] was -0.001163 and the “Δ F/F” value [5] was -0.0001447.
